In US9845322B2 (Hoffmann-La Roche Inc., priority 2016, dated 2017):

test system: HBsAg secretion in HepG2.2.15 cells; experiment: HBsAg assay (chemiluminescence immunoassay of secreted HBsAg in culture supernatant); format: cell-based, HBV; conditions: HepG2.2.15 cells; concentration at which HBsAg secretion was reduced by 50% compared to the no drug control; read-out: IC50 (HBsAg assay)
In short: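 IC50 taken from dose-response curves as the concentration halving secreted HBsAg relative to DMSO control. Measured by chemiluminescence immunoassay of culture supernatant from constitutively HBV-expressing HepG2.2.15 cells, seeded at 1.5×10^4/well in duplicate and exposed to three-fold serial compound dilutions at 1% final DMSO.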

Row | Structure (SMILES) | IC50
1 | CC1c2cnc(-c3ncccn3)nc2CCN1c1cc(N2CCCC2)cc(F)n1 (stereo not shown) [Example 198, 6-(6-fluoro-4-pyrrolidin-1-yl-2-pyridyl)-5-methyl-2-pyrimidin-2-yl-7,8-dihydro-5H-pyrido[4,3-d]pyrimidine] | 4 nM
2 | CC1c2cnc(-c3ncccn3)nc2CCN1c1cc(F)c(F)c(OC2CCOC2)c1 (stereo not shown) [Example 121, 6-(3,4-difluoro-5-tetrahydrofuran-3-yloxy-phenyl)-(5R/S)-methyl-2-pyrimidin-2-yl-7,8-dihydro-5H-pyrido[4,3-d]pyrimidine] | 42 nM
3 | CCCC1c2cnc(-c3ccccn3)nc2CCN1c1cc(F)c(F)c(OC)c1 (single isomer, unassigned; (-)) [Example 14, (−)-6-(3,4-difluoro-5-methoxy-phenyl)-5-propyl-2-(2-pyridyl)-7,8-dihydro-5H-pyrido[4,3-d]pyrimidine] | 2970 nM
4 | CCC1c2cnc(-c3ccccn3)nc2CCN1c1cc(F)c(F)c(OC)c1 (single isomer, unassigned; (-)) [Example 11, (−)-6-(3,4-difluoro-5-methoxy-phenyl)-5-ethyl-2-(2-pyridyl)-7,8-dihydro-5H-pyrido[4,3-d]pyrimidine] | 85 nM
5 | COc1cc(F)nc(N2CCc3nc(-c4ncccn4)ncc3C2C)c1 (single isomer, unassigned; (+)) [Example 139, (+)-6-(6-fluoro-4-methoxy-2-pyridyl)-5-methyl-2-pyrimidin-2-yl-7,8-dihydro-5H-pyrido[4,3-d]pyrimidine] | 1590 nM

same assay, conditions: Hepatitis B virus, HepG2.2.15, HepG2.2.15 cells; concentration at which HBsAg secretion was reduced by 50% compared to the no drug control; read-out: IC50 (HBsAg assay)

Row | Structure (SMILES) | IC50
6 | CC1c2cnc(-c3ncccn3)nc2CCN1c1cc(F)cc(N2CCCC2)n1 (stereo not shown) [Example 199, 6-(4-fluoro-6-pyrrolidin-1-yl-2-pyridyl)-5-methyl-2-pyrimidin-2-yl-7,8-dihydro-5H-pyrido[4,3-d]pyrimidine] | 18 nM
7 | CC(=O)N1CC(COc2cc(F)nc(N3CCc4nc(-c5ncccn5)ncc4C3C)c2)C1 (stereo not shown) [Example 160, 1-[3-[[2-fluoro-6-(5-methyl-2-pyrimidin-2-yl-7,8-dihydro-5H-pyrido[4,3-d]pyrimidin-6-yl)-4-pyridyl]oxymethyl]azetidin-1-yl]ethanone] | 196 nM
8 | COC(=O)C(CCOc1cc(N2CCc3nc(-c4ncccn4)ncc3C2C)cc(F)c1F)NC(=O)OC(C)(C)C (stereo not shown) [Example 102, methyl 2-(tert-butoxycarbonylamino)-4-[2,3-difluoro-5-(5-methyl-2-pyrimidin-2-yl-7,8-dihydro-5H-pyrido[4,3-d]pyrimidin-6-yl)phenoxy]butanoate] | 249 nM
9 | COc1cc(F)cc(N2CCc3nc(-c4ncccn4)ncc3C2C)n1 (stereo not shown) [Example 142, 6-(4-fluoro-6-methoxy-2-pyridyl)-5-methyl-2-pyrimidin-2-yl-7,8-dihydro-5H-pyrido[4,3-d]pyrimidine] | 40 nM
10 | COc1cc(N2CCc3nc(-c4ncccn4)ncc3C2C)nc(F)c1I (stereo not shown) [Example 128, 6-(6-fluoro-5-iodo-4-methoxy-2-pyridyl)-5-methyl-2-pyrimidin-2-yl-7,8-dihydro-5H-pyrido[4,3-d]pyrimidine] | 5 nM
11 | CC1c2cnc(-c3ncccn3)nc2CCN1c1cc(F)c(F)c(OCCCN2CCN(S(C)(=O)=O)CC2)c1 (stereo not shown) [Example 110, 6-[3,4-difluoro-5-[3-(4-methylsulfonylpiperazin-1-yl)propoxy]phenyl]-5-methyl-2-pyrimidin-2-yl-7,8-dihydro-5H-pyrido[4,3-d]pyrimidine] | 79 nM
12 | COC(=O)c1cc(F)cc(N2CCc3nc(-c4ncccn4)ncc3C2C)c1 (stereo not shown) [Example 175, methyl 3-fluoro-5-(5-methyl-2-pyrimidin-2-yl-7,8-dihydro-5H-pyrido[4,3-d]pyrimidin-6-yl)benzoate] | 1460 nM
13 | CC1c2cnc(-c3ncccn3)nc2CCN1c1cc(OCCCN2CCOCC2=O)cc(F)n1 (single isomer, unassigned; (-)) [Example 181, (−)-4-[3-[[2-fluoro-6-[5-methyl-2-pyrimidin-2-yl-7,8-dihydro-5H-pyrido[4,3-d]pyrimidin-6-yl]-4-pyridyl]oxy]propyl]morpholin-3-one] | 12 nM
14 | CC1c2cnc(-c3ncccn3)nc2CCN1c1cc(F)c(F)c(OCCCN2CCCC2=O)c1 (stereo not shown) [Example 96, 1-[3-[2,3-difluoro-5-(5-methyl-2-pyrimidin-2-yl-7,8-dihydro-5H-pyrido[4,3-d]pyrimidin-6-yl)phenoxy]propyl]pyrrolidin-2-one] | 94 nM
15 | CNC(=O)CCCOc1cc(N2CCc3nc(-c4ncccn4)ncc3C2C)cc(F)c1F (stereo not shown) [Example 53, 4-[2,3-difluoro-5-(5-methyl-2-pyrimidin-2-yl-7,8-dihydro-5H-pyrido[4,3-d]pyrimidin-6-yl)phenoxy]-N-methyl-butanamide] | 103 nM
16 | CC(=O)NCCCOc1cc(N2CCc3nc(-c4ncccn4)ncc3C2C)cc(F)c1F (stereo not shown) [Example 92, N-[3-[2,3-difluoro-5-(5-methyl-2-pyrimidin-2-yl-7,8-dihydro-5H-pyrido[4,3-d]pyrimidin-6-yl)phenoxy]propyl]acetamide] | 54 nM
17 | CC1c2cnc(-c3ncccn3)nc2CCN1c1cc(F)c(F)c(OCC(=O)NC2CCOC2)c1 (stereo not shown) [Example 83, 2-[2,3-difluoro-5-(5-methyl-2-pyrimidin-2-yl-7,8-dihydro-5H-pyrido[4,3-d]pyrimidin-6-yl)phenoxy]-N-tetrahydrofuran-3-yl-acetamide] | 190 nM
18 | COC(=O)C(C(=O)OC)C1c2cnc(-c3ccccn3)nc2CCN1c1ccc(S(C)(=O)=O)cc1 (stereo not shown) [Example 8] | 19600 nM
19 | CC1c2cnc(-c3ncccn3)nc2CCN1c1cc(OCCCCCCCC(N)=O)cc(F)n1 (stereo not shown) [Example 169, 8-[[2-fluoro-6-(5-methyl-2-pyrimidin-2-yl-7,8-dihydro-5H-pyrido[4,3-d]pyrimidin-6-yl)-4-pyridyl]oxy]octanamide] | 18 nM
20 | CC1c2cnc(-c3ncccn3)nc2CCN1c1cc(OCCCCCCCC(=O)O)cc(F)n1 (stereo not shown) [Example 168, 8-[[2-fluoro-6-(5-methyl-2-pyrimidin-2-yl-7,8-dihydro-5H-pyrido[4,3-d]pyrimidin-6-yl)-4-pyridyl]oxy]octanoic acid] | 21 nM
21 | CC1c2cnc(-c3ncccn3)nc2CCN1c1cc(F)c(F)c(OCC2COC2)c1 (stereo not shown) [Example 76, 6-[3,4-difluoro-5-(oxetan-3-ylmethoxy)phenyl]-5-methyl-2-pyrimidin-2-yl-7,8-dihydro-5H-pyrido[4,3-d]pyrimidine] | 28 nM
22 | CC1c2cnc(-c3ncccn3)nc2CCN1c1cc(F)c(F)c(OCCCN2CCOCC2=O)c1 (stereo not shown) [Example 80] | 71 nM
23 | COCCS(=O)(=O)NCCCOc1cc(N2CCc3nc(-c4ncccn4)ncc3C2C)cc(F)c1F (stereo not shown) [Example 94, N-[3-[2,3-difluoro-5-(5-methyl-2-pyrimidin-2-yl-7,8-dihydro-5H-pyrido[4,3-d]pyrimidin-6-yl)phenoxy]propyl]-2-methoxy-ethanesulfonamide] | 70 nM
24 | CC1c2cnc(-c3ncccn3)nc2CCN1c1cc(OCCCCCCC(=O)O)cc(F)n1 (single isomer, unassigned; (-)) [Example 155, (−)-7-[[2-fluoro-6-[5-methyl-2-pyrimidin-2-yl-7,8-dihydro-5H-pyrido[4,3-d]pyrimidin-6-yl]-4-pyridyl]oxy]heptanoic acid] | 12 nM
25 | COc1cc(Cl)nc(N2CCc3nc(-c4ncccn4)ncc3C2C)c1 (stereo not shown) [Example 126] | 8 nM
26 | COc1cc(N2CCc3cc(-c4ncccn4)ncc3C2C)cc(F)c1-c1ccncc1 (stereo not shown) [Example 136, 2-[3-fluoro-5-methoxy-4-(4-pyridyl)phenyl]-1-methyl-6-pyrimidin-2-yl-3,4-dihydro-1H-2,7-naphthyridine] | 357 nM
27 | COCCCS(=O)(=O)c1cc(F)cc(N2CCc3nc(-c4ncccn4)ncc3C2C)c1 (stereo not shown) [Example 187, 6-[3-fluoro-5-(3-methoxypropylsulfonyl)phenyl]-5-methyl-2-pyrimidin-2-yl-7,8-dihydro-5H-pyrido[4,3-d]pyrimidine] | 613 nM
28 | COc1cc(N2CCc3nc(-c4ncccn4)ncc3C2C)cc(F)c1Cl (stereo not shown) [Example 40, 6-(4-chloro-3-fluoro-5-methoxy-phenyl)-5-methyl-2-pyrimidin-2-yl-7,8-dihydro-5H-pyrido[4,3-d]pyrimidine] | 4860 nM
29 | CC1c2cnc(-c3ncccn3)nc2CCN1c1cc(F)c(F)c(OC(F)F)c1 (stereo not shown) [Example 71, 6-[3-(difluoromethoxy)-4,5-difluoro-phenyl]-5-methyl-2-pyrimidin-2-yl-7,8-dihydro-5H-pyrido[4,3-d]pyrimidine] | 68 nM
30 | CCOC(=O)CCCCCCOc1cc(N2CCc3nc(-c4ncccn4)ncc3C2C)cc(F)c1F (stereo not shown) [Example 85, ethyl 7-[2,3-difluoro-5-(5-methyl-2-pyrimidin-2-yl-7,8-dihydro-5H-pyrido[4,3-d]pyrimidin-6-yl)phenoxy]heptanoate] | 156 nM
31 | COc1cc(N2CCc3nc(-c4ncccn4)ncc3C2C)cc(C(F)(F)F)c1 (stereo not shown) [Example 112, 6-[3-methoxy-5-(trifluoromethyl)phenyl]-5-methyl-2-pyrimidin-2-yl-7,8-dihydro-5H-pyrido[4,3-d]pyrimidine] | 84 nM
32 | CC1c2cnc(-c3ccccn3)nc2CCN1c1cc(F)c(F)c(OCC(=O)O)c1 (stereo not shown) [Example 28, 2-[2,3-difluoro-5-[5-methyl-2-(2-pyridyl)-7,8-dihydro-5H-pyrido[4,3-d]pyrimidin-6-yl]phenoxy]acetic acid] | 3080 nM
33 | CC1c2cnc(-c3ncccn3)nc2CCN1c1cc(F)c(F)c(OCCCCCCCCN)c1 (stereo not shown) [Example 55, 8-[2,3-difluoro-5-(5-methyl-2-pyrimidin-2-yl-7,8-dihydro-5H-pyrido[4,3-d]pyrimidin-6-yl)phenoxy]octan-1-amine] | 113 nM

same assay, conditions: Hepatitis B virus, HepG2.2.15, read-out: IC50 (HBsAg assay)

Row | Structure (SMILES) | IC50
34 | CC1c2cnc(-c3ncccn3)nc2CCN1c1cc(OCCCCC(N)=O)cc(F)n1 (single isomer, unassigned; (-)) [Example 158, (−)-5-[[2-fluoro-6-[5-methyl-2-pyrimidin-2-yl-7,8-dihydro-5H-pyrido[4,3-d]pyrimidin-6-yl]-4-pyridyl]oxy]pentanamide] | 16 nM
